Data on 27 compounds can be found in patent publication US20170280720A1, “ARGININE […] INHIBITORS AND USES THEREOF” (EPIZYME, INC., priority 2014, published 2017).

The target of the experiment is T1, human PRMT1 (Homo sapiens, UniProt Q99873).
T1 construct: GST-tagged PRMT1; made in house; host or cells: High Five insect cells (baculovirus, pFastBacI)
Nature of the experiment: PRMT1 biochemical assay (3H-SAM Flashplate, peptide substrate). Particulars: read-out: PRMT1_ IC50. In outline: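 FLAG-tagged full-length human PRMT1 (0.5 nM, GST-tagged, insect-cell expressed) preincubated 30 min at RT with compound, then biotinylated histone H4 36-50 peptide (20 nM) plus 200 nM 3H-SAM and 1.5 uM SAM in Bicine pH 7.6, 2% DMSO. 3H-methylated peptide captured on streptavidin Flashplate; IC50 from 3/4-parameter fit.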

Counter-ions that a name gives are not always drawn.

T1 sequence (Q99873 with tags, fused parts or gaps): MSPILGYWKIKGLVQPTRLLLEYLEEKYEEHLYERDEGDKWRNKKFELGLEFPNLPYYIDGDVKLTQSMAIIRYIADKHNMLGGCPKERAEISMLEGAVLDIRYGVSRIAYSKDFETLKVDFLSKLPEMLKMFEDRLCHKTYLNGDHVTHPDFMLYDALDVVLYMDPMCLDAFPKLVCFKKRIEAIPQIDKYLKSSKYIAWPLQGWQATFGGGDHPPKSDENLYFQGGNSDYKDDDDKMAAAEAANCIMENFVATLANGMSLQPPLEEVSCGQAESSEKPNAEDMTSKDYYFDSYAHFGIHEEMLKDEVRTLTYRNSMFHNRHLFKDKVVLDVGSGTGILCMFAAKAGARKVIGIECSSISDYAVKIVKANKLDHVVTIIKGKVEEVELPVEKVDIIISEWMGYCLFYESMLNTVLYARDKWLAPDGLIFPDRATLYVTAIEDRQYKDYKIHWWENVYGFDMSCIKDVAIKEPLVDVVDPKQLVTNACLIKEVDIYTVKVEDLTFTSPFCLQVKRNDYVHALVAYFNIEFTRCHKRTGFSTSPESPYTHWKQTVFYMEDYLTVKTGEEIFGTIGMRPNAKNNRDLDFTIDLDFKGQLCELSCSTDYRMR

With `CC(C)n1cc2c(Cl)cc(-c3cccc(CN(C)CCN)c3)nc2n1` [Compound 59], the IC50 was 0.244 µM.
To `CNCCN(C)Cc1cccc(-c2cc(N3CCC(OC)CC3)c3cnn(C(C)C)c3n2)c1` [Compound 51] belongs 0.226 µM; to `CNCCN(C)Cc1cccc(-c2cc(C(=O)NCCCC(=O)NCc3ccn(C)n3)c3cnn(C(C)C)c3n2)c1` [Compound 88], 0.413 µM.
To `COc1ccccc1-c1nc2ccc(-c3ccc(CNCCN)cc3)cc2[nH]1` [Compound 115] belongs 0.629 µM; to `COc1cccc(Cn2cnc3ccc(-c4ccc(CN(C)CCN)cc4)cc32)c1` [Compound 8], 0.047 µM; to `CC(C)n1ncc2c(C(=O)NCc3ccccc3F)cc(-c3cccc(CN(C)CCN)c3)nc21` [Compound 65], 0.271 µM.
Next, `CNCCN(C)Cc1cccc(-c2cc(NC(=O)N(C)C)c3cnn(C(C)C)c3n2)c1` [Compound 123]: 0.766 µM; `CNCCN(C)Cc1cccc(-c2nc(N(C)C3CCOCC3)c3cnn(C4CC4)c3n2)c1` [Compound 109, N1-(3-(1-cyclopropyl-4-(methyl(tetrahydro-2H-pyran-4-yl)amino)-1H-pyrazolo[3,4-d]pyrimidin-6-yl)benzyl)-N1,N2-dimethylethane-1,2-diamine]: 0.57 µM; `COC(=O)Nc1cc(-c2cccc(CN(C)CCN)c2)nc2c1cnn2C(C)C` [Compound 71]: 0.302 µM.
Take `CN(CCN)Cc1cccc(-c2nc(N(C)C3CCOCC3)c3cnn(C4CC4)c3n2)c1` [Compound 119]: the IC50 worked out at 0.714 µM.
To `CNCCN(C)Cc1cccc(-c2cc(NC3CCOCC3)c3cnn(C(C)C)c3n2)c1` [Compound 76] belongs 0.317 µM; to `CNCCN(C)Cc1cccc(-c2cc(-c3ccoc3)c3cnn(C(C)C)c3n2)c1` [Compound 67], 0.275 µM; to `CNCCN(C)Cc1cccc(-c2nc(NCc3ccccn3)c3cnn(C4CC4)c3n2)c1` [Compound 9], 0.0473 µM.
Next, `CNCCN(C)Cc1cccc(-c2cc(NC3COC3)c3cnn(C(C)C)c3n2)c1` [Compound 58]: 0.239 µM; `CNCCN(C)Cc1cccc(-c2cc(N(C)C)c3cnn(C(C)C)c3n2)c1` [Compound 103]: 0.517 µM; `CCC(O)c1cc(-c2cccc(CN(C)CCNC)c2)nc2c1cnn2C(C)C` (stereo not drawn) [Compound 48]: 0.212 µM.
Next, `NCCNCc1ccc(-c2ccc3ncn(CC4CCCNC4)c3c2)cc1` (stereo not drawn) [Compound 81]: 0.359 µM; `CNCCN(C)Cc1cccc(-c2cc(N3CCOCC3)n3ncc(C(C)C)c3n2)c1` [Compound 62, N1-(3-(3-isopropyl-7-morpholinopyrazolo[1,5-a]pyrimidin-5-yl)benzyl)-N1,N2-dimethylethane-1,2-diamine formate]: 0.258 µM; `CNCCN(C)Cc1cccc(-c2ccc3cnn(C(C)C)c3c2)c1` [Compound 100]: 0.477 µM.
`CNCCN(C)Cc1cccc(-c2cc(C(=O)NCCCCCC(=O)NCC3CCOCC3)c3cnn(C(C)C)c3n2)c1` [Compound 112]: the IC50 was determined as 0.588 µM.
As to `CCS(=O)(=O)Nc1cc(-c2cccc(CN(C)CCN)c2)nc2c1cnn2C(C)C` [Compound 111], the IC50 was determined as 0.585 µM.
Turning to `CC(C)n1ncc2c(N3CCOCC3)cc(-c3cccc(CN(C)CCN)c3)nc21` [Compound 61, N1-(3-(1-isopropyl-4-morpholino-1H-pyrazolo[3,4-b]pyridin-6-yl)benzyl)-N1-methylethane-1,2-diamine], the IC50 stood at 0.249 µM.
To `CNCCN(C)Cc1cccc(-c2cc(N3CCOCC3)c3cnn(C(C)C)c3n2)c1` [Compound 68] belongs 0.277 µM; to `CNCCN(C)Cc1cccc(-c2cc(C(=O)NCc3cc(C)nn3C)c3cnn(C(C)C)c3n2)c1` [Compound 120], 0.718 µM.
To `CNCCN(C)Cc1cccc(-c2cc(C(=O)NCCCCC(=O)NCc3ccn(C)n3)c3cnn(C(C)C)c3n2)c1` [Compound 122] belongs 0.725 µM.
Turning to `CNCCN(C)Cc1cccc(-c2cnc3c(c2)c(C2CC2)nn3CC2CCOCC2)c1` [Compound 4], the IC50 was 0.0348 µM.
Consider `COc1cccc(CCn2cnc3ccc(-c4ccc(CNCCN)cc4)cc32)c1` [Compound 94], for which the IC50 turned out to be 0.446 µM.
